Consider eleven compounds from patent publication US6790864B2, “Compositions and methods to prevent toxicity induced by nonsteroidal antiinflammatory drugs” (NitroMed, Inc., priority 1995, dated 2004).

One data set deals with carrageenin paw edema. Briefly: rat paw edema test (antiinflammatory activity). The format is in vivo, rats. Conditions: ratio of activity relative to the parent NSAID; oral gavage one hour prior to carrageenin, paw volume after three hours. As for the experimental part:
The rat paw edema test was used to measure antiinflammatory activity. The rat paw edema test was performed according to the method of Winter et al., Proc. Soc. […] Male Sprague-Dawley rats (250-275 g) were fasted overnight and dosed by oral gavage with vehicle or suspensions of compound one hour prior to the subplantar injection of 50 μl of 1% suspension of carrageenin. Three hours later, the paw volume was measured and compared with the initial volume measured immediately after carrageenin injection.

The subject of data set [1] is gastric lesion. Briefly: rat gastric lesion test, acute (single dose). The format is in vivo, rats. The procedure:
(§1) The rat gastric lesion test (Kitagawa et al., J. Pharmacol. Exp.Ther., 253:1133-1137, 1990; Al-Ghamdi et al., J. Int. Med. Res., 19: 2242, 1991) was used to evaluate the potential of compounds to produce gastric lesion. Male Sprague Dawley rats (Charles River Laboratories, Wilmington, Mass.) weighing 230-250 g were used for the experiments. The rats were housed with laboratory chow and water ad libitum prior to the study. The rats were fasted for 24-30 hours with free access to water and then dosed by oral gavage with vehicle or with drugs given at a volume of 0.5 mL/100 g. For the unmodified NSAIDs being given in combination with a nitric oxide adduct (NO-adduct), the NO-adduct was administered by oral gavage immediately prior to the administration of NSAID by oral gavage. Food was withheld for 18 hours after the initial dosing. For acute studies, rats were euthanized by CO2 eighteen hours after dosing and the stomachs were dissected. For the multiple dosing studies, the results of which are in Table 3, food was given eighteen hours after the first dose and the rats were maintained on food and water ad libitum while receiving a single daily dose for the remainder of the experiment. […] The stomachs were dissected along the greater curvature, washed with a directed stream of 0.9% saline and pinned open on a sylgard based petridish for examination of the hemorrhagic lesion. Gastric lesion score was expressed in mm and calculated by summing the length of each lesion.

Data set [2] relates to gastric lesion. Briefly: rat gastric lesion test, multiple dosing studies. In kind it is in vivo, rats. The procedure:
as §1, with “Food was withheld for 18 hours after the initial dosing.” left out, “For the multiple dosing studies, the results of which are in Table 3, food was given eighteen hours after the first dose and the rats were maintained on food and water ad libitum while receiving a single daily dose for the remainder of the experiment.” left out

The subject of data set [3] is phenylbenzoquinone-induced writhing. Briefly: phenylbenzoquinone-induced writhing test in mice (analgesic activity). In kind it is in vivo. The note with it: ratio of activity relative to the parent NSAID; oral gavage 1 hour prior to phenylbenzoquinone i.p. The procedure: The phenylbenzoquinone-induced writhing test in mice was used to measure analgesic activity. The ability of the compounds to inhibit phenylbenzoquinone-induced writhing in mice was measured using the method of Siegmund et al., Proc. Soc. […] Male CD-1 mice (Charles River Laboratories, Wilmington, Mass.) weighing 20-25 g were fasted overnight. Vehicle or compounds were administered by oral gavage 1 hour prior to i.p. injection of 2 mg/kg of phenylbenzoquinone. In the case of a nitric oxide adduct being given in combination with a NSAID, the nitric oxide adduct was administered immediately before the NSAID. Five minutes after the i.p. injection of phenylbenzoquinone, the number of writhes in a 5 minute period was counted.

Setting [4] is: ratio of activity relative to the parent NSAID, oral gavage, fasted rats.
Where [5] appears, read: 7 days, fasted 24-30 hours before and 18 hours after first dosing, Ibuprofen 30, Example 11 50, Example 12 45 mg/kg.
[6] abbreviates: male, Sprague Dawley, rat, in vivo, po, 18 h.

“4-O-Nitroso-1-(α-methyl-4-(2-methylpropyl)benzeneacetic Acid) Butyl Ester [Example 12]”: the “Relative Activity Antiinflammation” value in the data set on carrageenin paw edema is recorded as 1. In the data set on gastric lesion [1] (setting [4]), the “Relative Activity Gastric Lesion” value was <0.03. Also, the “Relative Gastric Lesion Activity” value in the data set with gastric lesion [2] (setting [5]) was “+ (1-20% of the gastric toxcity induced by the parent NSAID = +)”.
Take “4-O-Nitroso-4-methyl-1-(3-benzoyl-α-methylbenzeneacetic Acid) Pentyl Ester [Example 5]”: the “Relative Activity Analgesia” value in data set [3] is 1.1.
Turning to `CC(C(=O)OCCCCON=O)c1cccc(C(=O)c2ccccc2)c1` (stereo not drawn) [Example 4, 4-O-Nitroso-1-(3-benzoyl-α-methylbenzeneacetic Acid) Butyl Ester], the “Relative Activity Analgesia” value in data set [3] was 1.6. Also, the “Relative Activity Antiinflammation” value with carrageenin paw edema is 0.58. Also, the “Relative Activity Gastric Lesion” value in the data set with gastric lesion [1] (rat, in vivo, po) is 0.03.
As for `CC(C(=O)OCCC(C)(C)SN=O)c1cccc(C(=O)c2ccccc2)c1` (stereo not drawn) [Example 6, 3-S-Nitroso-3-methyl-1-(3-benzoyl-α-methylbenzeneacetic Acid) Butyl Ester], the “Relative Activity Analgesia” value in data set [3] is recorded as 1. Moreover, the “Relative Gastric Lesion Activity” value in the data set with gastric lesion [2] (4 days, fasted 24-30 hours before and 4 hours after first dosing, Ketoprofen 10, Example 4 14, Example 6 15 mg/kg) was “++ (21-40% of the gastric toxcity induced by the parent NSAID = ++)”.
Consider `COc1ccc2c(c1)c(CC(=O)OCCCCON=O)c(C)n2C(=O)c1ccc(Cl)cc1` [Example 8], for which the “Relative Activity Analgesia” value in data set [3] is listed as 1. Further, the “Relative Activity Antiinflammation” value in the data set with carrageenin paw edema was determined as 1. In the data set on gastric lesion [1] (rat, in vivo, po), the “Relative Activity Gastric Lesion” value came out at 0.08.
With `CC(C)Cc1ccc(C(C)C(=O)OCCC(C)(C)SN=O)cc1` (stereo not drawn) [Example 11, 3-S-Nitroso-3-methyl-1-(α-methyl-4-(2-methylpropyl)benzeneacetic Acid) Butyl Ester], the “Relative Activity Antiinflammation” value in the data set with carrageenin paw edema was 1. Further, the “Relative Activity Gastric Lesion” value in the data set with gastric lesion [1] (setting [4]) was <0.05. For the same compound, the “Relative Gastric Lesion Activity” value in the data set with gastric lesion [2] (setting [5]) is recorded as “+ (1-20% of the gastric toxcity induced by the parent NSAID = +)”.
Consider `CC(C(=O)OCCCCON=O)c1ccc(-c2ccccc2)c(F)c1` (stereo not drawn) [Example 13, 4-O-Nitroso-1-(2-Fluoro-α-methyl-biphenylacetic Acid) Butyl Ester], for which, in data set [3], the “Relative Activity Analgesia” value came out at 0.31. In the data set with carrageenin paw edema, the “Relative Activity Antiinflammation” value amounted to 1.83. Also, the “Relative Activity Gastric Lesion” value with gastric lesion [1] (rat, in vivo, po) is on record as 0.5.
As for `CC(C(=O)OCc1ccc(CON=O)cc1)c1cccc(C(=O)c2ccccc2)c1` (stereo not drawn) [Example 16, 4O-Nitroso-hydroxymethylene-(1-(3-benzoyl-α-methylbenzeneacetic Acid)) Benzyl Ester], the “Relative Activity Analgesia” value in data set [3] is recorded as 1.1.
Consider `CC(C(=O)O)c1ccc(-c2ccccc2)c(F)c1` (stereo not drawn) [Flurbiprofen, reference compound], for which the “Relative Activity Analgesia” value in data set [3] is reported as 1. The “Relative Activity Antiinflammation” value in the data set on carrageenin paw edema is listed as 1. Moreover, the “Relative Activity Gastric Lesion” value in the data set with gastric lesion [1] (setting [6]) came to 1.
As to `COc1ccc2c(c1)c(CC(=O)O)c(C)n2C(=O)c1ccc(Cl)cc1` [Indomethacin, reference compound], the “Relative Activity Analgesia” value in data set [3] was 1. The “Relative Activity Antiinflammation” value with carrageenin paw edema worked out at 1. Moreover, the “Relative Activity Gastric Lesion” value in the data set with gastric lesion [1] (setting [6]) came to 1.
For the compound `CN1C(C(=O)Nc2ccccn2)=C(O)c2ccccc2S1(=O)=O` [Piroxicam, reference compound], the “Relative Activity Analgesia” value in data set [3] is listed as 1. Moreover, the “Relative Activity Gastric Lesion” value in the data set with gastric lesion [1] (setting [6]) is 1.
